Measurements from patent publication US10226471B2, “Modified-release dosage forms of 5-HT2C agonists useful for weight management” (Arena Pharmaceuticals, Inc., priority 2010, dated 2019).
Read-outs that look alike come from different tables or passages of the source.

Columns and labels:
[1] = Dynamic moisture-sorption (DMS); assay type: physicochemical; details: for hygroscopicity by DMS: isotherm 25° C.; for DMS weight gain at 90% RH: out to and including the 90% RH hold at 25° C.
Protocol: Dynamic moisture-sorption (DMS) studies were conducted using a dynamic moisture-sorption analyzer, VTI Corporation, SGA-100, equipment #0228. Samples were prepared for DMS analysis by placing 5 mg to 20 mg of a sample in a tared sample holder. The sample was placed on the hang-down wire of the VTI balance. A drying step was run, typically at 40° C. and 0.5-1% RH for 1-2 h. The isotherm temperature is 25° C. Defined % RH holds typically ranged from 10% RH to 90% RH or 95% RH, with intervals of 10 to 20% RH. A % weight change smaller than 0.010% over a specified number of minutes (typically 10-20), or up to 2 h, whichever occurs first, is required before continuing to the next % RH hold. The water content of the sample equilibrated as described above was determined at each % RH hold.

[2] = Solubility of salts in water (UPLC or gravimetry); assay type: physicochemical
Protocol: Acquity ultra performance liquid chromatography (UPLC) from Waters was used for solubility and stoichiometry determination. […] UPLC was equipped with Acquity PDA detector. UPLC mobile phase solvent A was 0.1% TFA in DI-water, solvent B was 0.1% TFA in acetonitrile.
Column temperature was 40±5° C. Acquity UPLC® HSS T3 1.8 μm, 2.1×50 mm column was used.
A known amount of sample was dissolved in water and analyzed by UPLC.

[3] = Biopharmaceutics Classification System classification; assay type: physicochemical
Description: An immediate-release, film-coated 10-mg tablet was developed for the phase 3 clinical trials and commercialization of Compound 1 (Example 5).

[4] = Deliquescence relative humidity (DRH) by water activity meter; assay type: physicochemical; details: saturated aqueous solution with excess solid, 25° C.
[5] = chronic twice-daily oral administration, high fat diet, 4-week study; cited from earlier work
[6] = 26-day body weight study, oral gavage versus osmotic minipump; assay type: in vivo, male Sprague Dawley rats
Protocol: 30 male Sprague Dawley rats weighing 275-320 g were singly housed and maintained on a 12 h:12 h light-dark cycle (lights on at 23:00 h). Food and water were available ad libitum at all times except during the first day after pump implantation (see below). All rats were habituated to injection and handling procedures for one week prior to study onset.
For the purposes of dose calculation each rat was assumed to weigh 320 g at the start of the study. Rats receiving Compound 1 hydrochloride salt PO were given a fixed daily dose of 7.68 mg, whereas rats in the pump group received a total fixed daily dose of 4.84 mg (for calculations see Example 2.1).
Osmotic minipumps (Alzet® model 2ML4, Durect Corp, CA) were filled with either vehicle (0.9% saline, n=20), or Compound 1 hydrochloride salt solutions and submerged overnight in a 0.9% saline solution to reach equilibrium. […] All subjects were then implanted with the minipumps. Briefly, under isoflourane anaesthesia the nape of the neck was shaved, a mid-scapular incision was made and a subcutaneous pocket was created for the minipump. A minipump was then inserted into the pocket and the incision was closed using surgical staples. Rats were then returned to homecage for recovery. Rats in VEH and PO groups received pumps primed with vehicle; whereas rats in the PUMP group received Compound 1 hydrochloride salt-filled pumps. Because steady state levels of Compound 1 in vivo in the PUMP group were not predicted to be reached until at least 24 h post-implantation, food was removed from all rats for approximately one day after surgery. At 10:30 h the next day (Day 1) and for all subsequent days, food and body weight was measured for all subjects, and all subjects were administered either saline (for VEH and PUMP groups), or Compound 1 hydrochloride salt (PO group) via oral gavage. Food intake and body weight were measured for a total of 26 days.

[7] = Appearance on exposure to light; assay type: physicochemical; details: solid removed from the slurry
[8] = water, thermodynamic from solid, by UPLC, read-out: solubility in water

With `C[C@H]1CNCCc2ccc(Cl)cc21.C[C@H]1CNCCc2ccc(Cl)cc21.O.O=C(O)c1cc2ccccc2c(Cc2c(O)c(C(=O)O)cc3ccccc23)c1O` [Compound 1 hemipamoate salt hydrate] the “hygroscopicity by DMS” value [1] was “slightly hygroscopic”, the “DMS weight gain at 90% RH” value ([1]; listed as Compound 1 Hemipamoate Salt Hydrate, Form I, hydrate) was “FIG. 41: ~1.472% weight gain at about 90% RH” and the “DMS weight gain at 90% RH” value ([1]; listed as Compound 1 hemipamoate salt hydrate, Form I, hydrate) was “about 1.472%”. The solubility in water ([2]; by UPLC) was 24 µg/mL.

`C[C@H]1CNCCc2ccc(Cl)cc21.C[C@H]1CNCCc2ccc(Cl)cc21.O=S(=O)(O)c1cccc2c(S(=O)(=O)O)cccc12` [Compound 1 heminapadisilate salt] gave a solubility in water ([2]; by UPLC) of 2370 µg/mL.

In the case of `C[C@H]1CNCCc2ccc(Cl)cc21.C[C@H]1CNCCc2ccc(Cl)cc21.Cl.Cl.O`, the “Biopharmaceutics Classification System solubility class” value [3] is reported as “highly soluble” and the solubility ([2]; pH range of 1 to 7) is reported as “exceeds 400 mg/mL”.

In the case of `C[C@H]1CNCCc2ccc(Cl)cc21.O=C(O)/C=C/C(=O)O` [Compound 1 fumarate salt], the “hygroscopicity by DMS” value ([1]; listed as Compound 1 Fumarate Salt, Form I, fumarate salt) is reported as “FIG. 13: non-hygroscopic up to 90% RH”, the “hygroscopicity by DMS” value ([1]; listed as Compound 1 fumarate salt, Form I, fumarate salt) is reported as “non-hygroscopic” and the solubility [2, 8] is reported as 4800 µg/mL. For the same compound, the “DRH (deliquescence relative humidity)” value [4] was 99 % RH.

In the case of `C[C@H]1CNCCc2ccc(Cl)cc21.O=C(O)/C=C\C(=O)O` [Compound 1 maleate salt], the “hygroscopicity by DMS” value [1] is reported as “not hygroscopic”, the “DMS weight gain at 90% RH” value ([1]; maleate salt) is reported as 0.15% and the solubility [2, 8] is reported as 33000 µg/mL. For the same compound, the “DRH (deliquescence relative humidity)” value [4] was 99 % RH.

In the case of `C[C@H]1CNCCc2ccc(Cl)cc21.Cl` [Compound 1 hydrochloride salt], the “food intake and body weight gain” value [5] is listed as “dose-dependent reductions in food intake and body weight gain”, the “body weight gain, PUMP group compared to PO group” value ([6]; 26 days, p=0.0501, slopes differ p<0.01) is listed as “lower weight gain in the PUMP group than in the PO group” and the “body weight gain over 26 days compared to saline” value ([6]; oral gavage once daily, 24 mg/kg/day (fixed 7.68 mg)) is listed as “significantly decreased”. For the same compound, the “body weight gain over 26 days compared to saline” value ([6]; osmotic minipump, 15.1 mg/kg/day (fixed 4.84 mg)) was “significantly decreased”.

With `C[C@H]1CNCCc2ccc(Cl)cc21.I` [Compound 1 hydroiodide salt] the “hygroscopicity by DMS” value ([1]; Form I, hydroiodide salt) was “FIG. 7: non-hygroscopic”, the “hygroscopicity by DMS” value ([1]; hydroiodide salt) was “non-hygroscopic” and the “colour change on exposure to light” value [7] was “did yellow noticeably within hours when exposed to light”. The solubility ([2]; water, thermodynamic from solid, 27° C., by gravimetry (confirmed by UPLC), read-out: solubility in water) was 5500 µg/mL and the “DRH (deliquescence relative humidity)” value [4] was 99 % RH.
